Test results published in US20200390766A1, “PHARMACEUTICAL COMPOSITION” (Kowa Company, Ltd., priority 2019, published 2020).

Key:
Format in all cases: in vivo, male ICR mice
[1] = tested on: pulmonary fibrosis model mice exposed to bleomycin in the trachea; assay: Therapeutic effect on pulmonary fibrosis (Example 2): amount of hydroxyproline in the lungs; conditions: day 21, Dunnett test, FIG. 3
Description: The lung tissue extracted from the mouse was homogenized in a PBS solution, then mixed with an equal volume of 12N hydrochloric acid in a tube, and incubated at 110° C. for 20 to 24 hours. After the incubation, the solution was volatilized by opening the tube and continuing the incubation. Thereafter, the resulting mixture was suspended in a citrate acetate buffer (5% citric acid, 1.2% glacial acetic acid, 7.25% sodium acetate, 3.4% sodium hydroxide, pH 6.0), and the solution filtered with a 0.45 μm diameter centrifugal filter was used as a sample. 10 μL of the sample was added with 100 μL of chloramine T solution (1.4% chloramine T, 10% n-propanol, 80% citrate acetate buffer) and incubated at room temperature for 20 minutes, then added with 100 μL of Ehrlich's reagent (1 M p-dimethylamino benzaldehyde, 20% perchloric acid, 50% n-propanol) and incubated at 65° C. for 15 minutes, and the absorbance at 550 nm was measured to quantify the amount of hydroxyproline.
(§1) Compound A was dissolved in a 0.5% aqueous solution of methylcellulose (methylcellulose: Shin-Etsu Chemical Co., Ltd., distilled water: Otsuka Pharmaceutical Factory, Inc.) to prepare a sample solution. Further, losartan (Tokyo Chemical Industry Co., Ltd.) was dissolved in a 0.5% aqueous solution of methylcellulose to prepare a sample solution. Furthermore, pirfenidone (Ark Pharma Inc.) was dissolved in a 0.5% aqueous solution of carboxymethyl cellulose (carboxymethyl cellulose: Maruishi Pharmaceutical Co., Ltd.) to prepare a sample solution.
Model mice were prepared in the same manner as in Example 1.
(§2) Investigation was conducted in mice not exposed to bleomycin (exposed to physiological saline in the trachea) in the normal group (6 mice), and pulmonary fibrosis model mice exposed to bleomycin in the trachea divided into 4 groups (control, compound A 50 mg/kg/day, losartan 50 mg/kg/day, and pirfenidone 400 mg/kg/day; 10 mice in each group). […]
The amount of hydroxyproline in the mice was measured by the same method as in Example 1.

[2] = tested on: pulmonary fibrosis model mice exposed to bleomycin in the trachea; assay: Preventive effect on pulmonary fibrosis (Example 1): lung wet weight; conditions: FIG. 1; for lung weight as compared to the normal group: lungs extracted 21 days after exposure
Description: as §1, with “methylcellulose” for “carboxymethyl cellulose (carboxymethyl cellulose: Maruishi Pharmaceutical Co., Ltd.)”
(§3) 6-week-old male ICR mice (Japan SLC, Inc.) were exposed to bleomycin (Nippon Kayaku Co., Ltd.) (1.5 mg/kg) dissolved in physiological saline in the trachea to prepare pulmonary fibrosis model mice.
Investigation was conducted in mice not exposed to bleomycin (exposed to physiological saline in the trachea) in the normal group (6 mice), and pulmonary fibrosis model mice exposed to bleomycin in the trachea divided into 4 groups (control, compound A 50 mg/kg/day, losartan 50 mg/kg/day, and pirfenidone 400 mg/kg/day; 10 mice in each group). From the day after exposure to bleomycin, a 0.5% aqueous solution of methylcellulose was orally administered (administered twice a day) to the normal group and the control group, the sample solution of compound A prepared above was orally administered (administered once a day) to the compound A administration group, the sample solution of losartan prepared above was orally administered (administered once a day) to the losartan administration group, and the sample solution of pirfenidone prepared above was orally administered (administered twice a day) to the pirfenidone administration group, respectively. Twenty-one days after the bleomycin exposure, the mice were anesthetized and whole lung tissues were extracted.
After washing the lung tissue extracted from the mouse with physiological saline, water was removed with a filter paper, and the wet weight was measured.

[3] = tested on: pulmonary fibrosis model mice exposed to bleomycin in the trachea; assay: Preventive effect on pulmonary fibrosis (Example 1): amount of hydroxyproline in the lungs; conditions: 50 mg/kg/day oral once a day from the day after bleomycin exposure, day 21, FIG. 2; for amount of hydroxyproline in the lungs as compared to the control group: Dunnett test
Description: as §1, with “methylcellulose” for “carboxymethyl cellulose (carboxymethyl cellulose: Maruishi Pharmaceutical Co., Ltd.)”
as §3, §2
The lung tissue extracted from the mouse was homogenized in a PBS solution, then mixed with an equal volume of 12N hydrochloric acid in a tube, and incubated at 110° C. for 20 to 24 hours. […] 10 μL of the sample was added with 100 μL of chloramine T solution (1.4% chloramine T, 10% n-propanol, 80% citrate acetate buffer) and incubated at room temperature for 20 minutes, then added with 100 μL of Ehrlich's reagent (1 M p-dimethylamino benzaldehyde, 20% perchloric acid, 50% n-propanol) and incubated at 65° C. for 15 minutes, and the absorbance at 550 nm was measured to quantify the amount of hydroxyproline.

[4] = 50 mg/kg/day oral once a day from the 7th day after bleomycin exposure
[5] = 50 mg/kg/day oral once a day from the day after bleomycin exposure

SMILES	amount of hydroxyproline in the lungs as compared to the control group ([1]; 400 mg/kg/day oral twice a day from the 7th day after bleomycin exposure)	lung weight as compared to the normal group ([2]; 400 mg/kg/day oral twice a day from the day after bleomycin exposure)	amount of hydroxyproline in the lungs as compared to the control group [1, 4]	amount of hydroxyproline in the lungs as compared to the control group [3]	lung weight as compared to the normal group [2, 5]	decrease of hydroxyproline in the lung relative to the losartan administration group [3]	lung weight as compared with the control group ([2]; 50 mg/kg/day oral once a day from the day after bleomycin exposure, day 21, Dunnett test)
Cc1ccc(=O)n(-c2ccccc2)c1 [pirfenidone]	no significant difference	significant increase in lung weight					
CCCCc1nc(Cl)c(CO)n1Cc1ccc(-c2ccccc2-c2nn[nH]n2)cc1 [losartan]			no significant difference	significant decrease in hydroxyproline in the lung	significant increase in lung weight		
CCCc1nc(C(C)C)n(-c2ncc(OCC)cn2)c(=O)c1Cc1ccc(-c2ccccc2-c2noc(=O)[nH]2)nc1 [compound A, 3-[2-(5-{[1-(5-ethoxypyrimidin-2-yl)-2-isopropyl-6-oxo-4-propyl-1,6-dihydropyrimidin-5-yl]methyl}pyridin-2-yl)phenyl]-1,2,4-oxadiazol-5(4H)-one]			significant decrease in hydroxyproline in the lung	significant decrease in hydroxyproline in the lung	no significant increase in lung weight	larger decrease than the losartan administration group	significant decrease in lung weight
